The test system of assay [1] is HCT-15. The assay can be described thus: Growth inhibition of human HCT15 cells at 1 x 10^-5 M after 24 hrs by MTT assay relative to control. Conditions: HCT-15, 24 h, read-out: GI. It counts as functional. For orientation: Formazan colour is commonly taken as a measure of viable cells.
In assay [2] the test system is NCI-H522. The assay can be described thus: Growth inhibition of human NCI-H522 cells at 1 x 10^-5 M after 24 hrs by MTT assay relative to control. Type of assay: functional. The note with it: NCI-H522, 24 h, read-out: GI.
Assay [3] concerns PA-1. The assay can be described thus: Growth inhibition of human PA1 cells at 1 x 10^-5 M after 24 hrs by MTT assay relative to control. Type of assay: functional. Conditions: PA-1, 24 h, read-out: GI.
Assay [4] deals with T47D. The assay can be described thus: Growth inhibition of human T47D cells at 1 x 10^-5 M after 24 hrs by MTT assay relative to control. Type of assay: functional. Conditions: read-out: GI.
Assay [5] relates to HepG2. The assay can be described thus: Growth inhibition of human HepG2 cells at 1 x 10^-5 M after 24 hrs by MTT assay relative to control. It counts as functional. The note with it: HepG2, 24 h, read-out: GI.
In assay [6] the test system is HepG2. The assay can be described thus: Growth inhibition of human HepG2 cells after 24 hrs by MTT assay. It counts as functional, cell-based. Conditions: HepG2, 24 h.
Assay [7] has as its system HCT-15. The assay can be described thus: Growth inhibition of human HCT15 cells after 24 hrs by MTT assay. Type of assay: functional, cell-based. The note with it: HCT-15, 24 h.
Assay [8] concerns HEK-293T. The assay can be described thus: Growth inhibition of HEK293T cells after 24 hrs by MTT assay. It counts as cell-based. Conditions: Homo sapiens.
For assay [9], the system named is NCI-H522. The assay can be described thus: Growth inhibition of human NCI-H522 cells after 24 hrs by MTT assay. Type of assay: functional, cell-based. The note with it: NCI-H522, 24 h.

`O=C1C2CCCCC2C(=O)N1CCCC1OCC2(CO1)COC(CCCN1C(=O)C3CCCCC3C1=O)OC2` (configuration not stated): the inhibition of growth at 10 µM in assay [1] is 21%; in assay [2] it was 28%; in assay [3], 15%; in [4] it was 11%; in assay [5], 13%.
The corresponding values for `CC(CN1C(=O)c2nc[nH]c2C1=O)N1C(=O)c2nc[nH]c2C1=O` (configuration not stated) are 30%, 3%, 20%, 32% and 36%.
For the molecule `O=C1Cc2ccccc2C(=O)N1CCCN1CCN(CCCN2C(=O)Cc3ccccc3C2=O)CC1`, the inhibition of growth at 10 µM came out at 1% in assay [1]; 6% in assay [2]; 0% in assay [3]; 5% in [4]; 7% in assay [5].
The corresponding values for `O=C1CNCC(=O)N1CCCN1C(=O)CNCC1=O` are 2%, 30%, 19%, 31% and 35%.
For `O=C1c2nccnc2C(=O)N1CCCN1C(=O)c2nccnc2C1=O` the same measures were 5%, 0%, 16%, 13% and 1%.
For `O=C1C2CCCCC2C(=O)N1CCCN1CCN(CCCN2C(=O)C3CCCCC3C2=O)CC1` (configuration not stated) the same measures were 8%, 9%, 6%, 11% and 19%.
As for `CC(CN1C(=O)Cc2ccccc2C1=O)N1C(=O)Cc2ccccc2C1=O` (configuration not stated), the inhibition of growth at 10 µM in assay [1] was found to be 11%; in assay [2] it was 16%; in [3] it was 3%; in assay [4], 26%; in assay [5], 21%.
The corresponding values for `O=C1Cc2ccccc2C(=O)N1CCCC1OCC2(CO1)COC(CCCN1C(=O)Cc3ccccc3C1=O)OC2` (configuration not stated) are 12%, 0%, 0%, 1% and 5%.
For `O=C1CNCC(=O)N1CCCC1OCC2(CO1)COC(CCCN1C(=O)CNCC1=O)OC2` (configuration not stated) the same measures were 21%, 25%, 12%, 31% and 37%.
For `O=C1CNCC(=O)N1CCOCCOCCN1C(=O)CNCC1=O` the same measures were 0%, 3%, 0%, 1% and 0%.
As for `O=C1C2CC=CCC2C(=O)N1CCCC1OCC2(CO1)COC(CCCN1C(=O)C3CC=CCC3C1=O)OC2` (configuration not stated), the inhibition of growth at 10 µM in [1] was determined as 11%; in assay [2] it was 19%; in [3], 7%; in assay [4], 39%; in assay [5], 25%.
For `O=C1c2nccnc2C(=O)N1CCCN1CCN(CCCN2C(=O)c3nccnc3C2=O)CC1` the same measures were 10%, 19%, 18%, 15% and 20%.
The corresponding values for `O=C1c2nc[nH]c2C(=O)N1CCOCCOCCN1C(=O)c2nc[nH]c2C1=O` are 27%, 32%, 19%, 37% and 49%.
For `O=C1Cc2ccccc2C(=O)N1CCOCCOCCN1C(=O)Cc2ccccc2C1=O` the same measures were 0%, 5%, 0%, 1% and 1%.
For the molecule `O=C1c2nccnc2C(=O)N1CCN1C(=O)c2nccnc2C1=O`, the inhibition of growth at 10 µM in assay [1] turned out to be 39%; in assay [2], 30%; in assay [3], 4%; in assay [4] it was 11%; in assay [5], 7%.
For `CC(CN1C(=O)CNCC1=O)N1C(=O)CNCC1=O` (configuration not stated) the same measures were 12%, 16%, 3%, 20% and 22%.
For `CC(CN1C(=O)c2nccnc2C1=O)N1C(=O)c2nccnc2C1=O` (configuration not stated), the inhibition of growth at 10 µM in [1] was 21%; in assay [2] it was 4%; in assay [3] it was 1%; in assay [4], 6%; in assay [5], 1%.
Consider `O=C1Cc2ccccc2C(=O)N1CCN1C(=O)Cc2ccccc2C1=O`, for which the inhibition of growth at 10 µM in [1] worked out at 6%; in assay [2], 16%; in [3], 9%; in assay [4], 8%; in [5] it was 4%.
The corresponding values for `O=C1c2nc[nH]c2C(=O)N1CCCN1C(=O)c2nc[nH]c2C1=O` are 21%, 10%, 17%, 35% and 34%.
For `O=C1CNCC(=O)N1CCCN1CCN(CCCN2C(=O)CNCC2=O)CC1` the same measures were 14%, 19%, 29%, 24% and 21%.
As for `O=C1Cc2ccccc2C(=O)N1CCCN1C(=O)Cc2ccccc2C1=O`, the inhibition of growth at 10 µM is 7% in [1]; 1% in assay [2]; 15% in [3]; 11% in assay [4]; 5% in [5].
The corresponding values for `O=C1c2nc[nH]c2C(=O)N1CCCC1OCC2(CO1)COC(CCCN1C(=O)c3nc[nH]c3C1=O)OC2` (configuration not stated) are 11%, 27%, 15%, 19% and 31%.
For `O=C1c2nc[nH]c2C(=O)N1CCCN1CCN(CCCN2C(=O)c3nc[nH]c3C2=O)CC1` the same measures were 0%, 2%, 0%, 0% and 1%.
The corresponding values for `O=C1CNCC(=O)N1CCN1C(=O)CNCC1=O` are 30%, 30%, 20%, 38% and 15%.
Consider `O=C1C2CC=CCC2C(=O)N1CCCN1CCN(CCCN2C(=O)C3CC=CCC3C2=O)CC1` (configuration not stated), for which the inhibition of growth at 10 µM in assay [1] stood at 18%; in assay [2] it was 37%; in assay [3], 10%; in assay [4] it was 29%; in [5], 39%.
For `O=C1c2nccnc2C(=O)N1CCOCCOCCN1C(=O)c2nccnc2C1=O` the same measures were 47%, 35%, 38%, 39% and 6%.
Broadly, the IC50 is the concentration that inhibits the measured activity by half. The low end stands for higher potency, the high end for lower potency. As to `C[C@@H]1C[C@@H]([C@H](O)CC2CC(=O)NC(=O)C2)C(=O)[C@@H](C)C1` [CYCLOHEXIMIDE], the IC50 was 55.1 µM in assay [6], 52.3 µM in assay [7], > 100 µM in assay [8] and 62.1 µM in [9]. Moreover, the inhibition of growth at 10 µM came to 21% in assay [1]; 18% in assay [2]; 33% in assay [3]; 23% in assay [4]; 21% in [5].
Regarding `O=c1[nH]cc(F)c(=O)[nH]1` [FLUOROURACIL], the IC50 in assay [6] is 32.9 µM; in assay [8] it was > 100 µM; in [9], 55.6 µM. For the same molecule, the inhibition of growth at 10 µM turned out to be 12% in assay [1]; 27% in assay [2]; 7% in [3]; 24% in [4]; 17% in [5].
